Source: ChEMBL document CHEMBL1149926, “Synthesis of 7-substituted androstenediones by a 1,4-conjugate addition approach” (Bioorg Med Chem Lett, 1995)

Target: T1, Aromatase (Homo sapiens, UniProt P11511)
T1 sequence (P11511 whole entry): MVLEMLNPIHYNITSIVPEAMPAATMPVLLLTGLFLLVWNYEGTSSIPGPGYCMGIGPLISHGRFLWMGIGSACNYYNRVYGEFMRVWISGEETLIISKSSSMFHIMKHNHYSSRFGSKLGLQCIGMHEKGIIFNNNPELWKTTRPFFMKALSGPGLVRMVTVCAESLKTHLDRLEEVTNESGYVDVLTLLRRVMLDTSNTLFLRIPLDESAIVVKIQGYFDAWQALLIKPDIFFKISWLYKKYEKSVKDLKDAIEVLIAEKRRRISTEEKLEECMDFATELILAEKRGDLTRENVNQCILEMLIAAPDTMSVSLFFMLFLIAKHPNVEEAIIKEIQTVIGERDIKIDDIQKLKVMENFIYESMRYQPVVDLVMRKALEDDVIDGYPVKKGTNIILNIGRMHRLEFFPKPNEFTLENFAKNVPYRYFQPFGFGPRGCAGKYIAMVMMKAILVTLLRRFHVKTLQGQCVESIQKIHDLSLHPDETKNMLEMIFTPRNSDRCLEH
Experiment: Inhibition of aromatase cytochrome P450 19A1

Row | SMILES | Ki
1 | C[C@]12CCC(=O)C=C1C[C@@H](CCc1ccccc1)[C@@H]1[C@@H]2CC[C@]2(C)C(=O)CC[C@@H]12 | 16.5 nM
2 | C[C@]12C=CC(=O)C=C1C[C@@H](Sc1ccc(N)cc1)[C@@H]1[C@@H]2CC[C@]2(C)C(=O)CC[C@@H]12 | 10 nM
3 | C[C@]12CCC(=O)C=C1C[C@@H](Cc1ccccc1)[C@@H]1[C@@H]2CC[C@]2(C)C(=O)CC[C@@H]12 | 13.1 nM
